In US12649735B2 (HAIHE BIOPHARMA CO., LTD., priority 2019, dated 2026):

Experiments:
[1] = biological target: T1, bromodomain protein BRD4 BD1 (Homo sapiens, UniProt O60885); experiment: HTRF in vitro assay, inhibitory activity against BRD4 BD1; assay type: binding; conditions: BRD4(1) 30 nM in final system
T1 construct: The proteins BRD4 BD1/BD2 used in the experiment were purchased from Active Motif Company (Cat. No. 31380/31446); purchased Active Motif 31380
Experimental: In this example, the half inhibitory activity (IC50) of the compounds of the present invention against the bromodomain protein BRD4 BD1 was determined.
(§1) The inhibitory activity of the compound against BRD4 BD1 was determined by using Homogeneous Time-Resolved Fluorescence (HTRF).
(§2) The proteins BRD4 BD1/BD2 used in the experiment were purchased from Active Motif Company (Cat. No. 31380/31446); Streptavidin XL-665 (#610SAXLA) and EPIgeneous Binding Domain Kit A (#62BDAPEG) were purchased from Cisbio Bioassays Company, [Lys(5,8,12,16)Ac]H4(1-21)-biotin (#64989), and [Lys(5,8,12,16)Ac]H4(1-25) were products of AnaSpec company; OTX015 and ABBV-075 were purchased from SelleckChem. 384 Well ProxiPlate (#6008280) was purchased from PerkinElmer. The multifunctional microplate reader used for the experimental was a product of PerkinElmer, model: Envision 2104. The experimental water was Millipore-Q pure water.
(§3) 10 mM of stock solution of compound in DMSO was diluted to 1 mM with DMSO and stored, and then diluted 10 times with Binding Domain dilution buffer (purchased from Cisbio Bioassays) for use (the concentration of DMSO in the final system was […]), 1:5 gradient dilution, a total of 5 concentrations.
(§4) 4. Test Method: 1 Batch, 2 Duplicate Wells
(§5) • 1) 5 μL of test compound was transferred to 45 μL of Binding Domain dilution buffer. • 2) 2 μL of 10× compound (4 μL Binding Domain dilution buffer: positive control; 6 μL enzyme buffer (purchased from Cisbio Bioassays): negative control) was transferred to the reaction plate. • 3) 4 μL of 5×BRD4(1) or BRD4(2) (30 nM in final system) was added to the reaction plate. • 4) 4 μL of 5×[Lys(5,8,12,16)Ac]H4(1-21)-biotin was added to the reaction plate, and the plate was covered with a film, and incubated at 37° C. for 30 min. • 5) A detection mixture of SA-XL665 (2×) and anti-H3K9me0-Eu(K) (2×) was prepared in detection buffer (purchased from Cisbio Bioassays). • 6) 10 μL of detection mixture (2×) was added to each well, and incubated for 3 h at room temperature, and the mp value was read using a multi-plate reader Envision. The parameters were set as follows.

[2] = biological target: T2, bromodomain protein BRD4 BD2 (Homo sapiens, UniProt O60885); experiment: HTRF in vitro assay, inhibitory activity against BRD4 BD2; assay type: binding; conditions: BRD4(2) 30 nM in final system
T2 construct: The proteins BRD4 BD1/BD2 used in the experiment were purchased from Active Motif Company (Cat. No. 31380/31446); purchased Active Motif 31446
Experimental: as §1, §2, §3, §4, §5

SMILES	IC50 [1] [µM]	IC50 [2] [µM]
CC(c1ccccc1)c1cn(C)c(=O)c2[nH]c(-c3ccoc3)cc12 (stereo not shown) [Compound A46]	0.01 to 0.1	≤ 0.01
Cn1cc(Cc2ccccc2)c2c[nH]cc2c1=O [Compound A1]	0.1 to 1	0.01 to 0.1
CC(c1ccccc1)c1cn(C)c(=O)c2cc(-c3cn(C)nc3N)sc12 (stereo not shown) [Compound A42, 2-(3-amino-1-methyl-1H-pyrazol-4-yl)-5-methyl-7-(1-phenylethyl)thieno[3,2-c]pyridin-4(5H)-one]	0.1 to 1	0.01 to 0.1
CC(c1ccc(F)cc1)c1cn(C)c(=O)c2[nH]c(-c3cn[nH]c3)cc12 (stereo not shown) [Compound A19, 4-(1-(4-fluorophenyl)ethyl)-6-methyl-2-(1H-pyrazol-4-yl)-1,6-dihydro-7H-pyrrolo[2,3-c]pyridin-7-one]	0.1 to 1	≤ 0.01
Cc1ccc(C2c3ccccc3C(=O)N2c2cn(C)c(=O)c3[nH]c(C(=O)Nc4cn[nH]c4)cc23)cc1 (stereo not shown) [Compound A55]	0.1 to 1	0.01 to 0.1
CC(c1ccccc1)c1cn(C)c(=O)c2[nH]c(-c3ccnc(C(F)(F)F)c3)cc12 (stereo not shown) [Compound A16, 6-methyl-4-(1-phenethyl)-2-(2-(trifluoromethyl)pyridin-4-yl)-1,6-dihydro-7H-pyrrolo[2,3-c]pyridin-7-one]	0.1 to 1	0.01 to 0.1
CC(c1ccccc1)c1cn(C)c(=O)c2cc(-c3cn(C)nc3[N+](=O)[O-])sc12 (stereo not shown) [Compound A41, 5-methyl-2-(1-methyl-3-nitro-1H-pyrazol-4-yl)-7-(1-phenylethyl)thieno[3,2-c]pyridin-4(5H)-one]	0.1 to 1	0.1 to 1
CC(c1ccccc1)c1cn(C)c(=O)c2cc(-c3n[nH]cc3N)oc12 (stereo not shown) [Compound A58, 2-(4-amino-1H-pyrazol-3-yl)-5-methyl-7-(1-phenethyl)furo[3,2-c]pyridin-4(5H)-one]	0.1 to 1	≤ 0.01
CC(c1ccccc1)c1cn(C)c(=O)c2c(C(=O)O)c(-c3cnn(C)c3)oc12 (stereo not shown) [Compound A60, 5-methyl-2-(1-methyl-1H-pyrazol-4-yl)-4-oxo-7-(1-phenethyl)-4,5-dihydrofuro[3,2-c]pyridin-3-carboxylic acid]	0.1 to 1	0.01 to 0.1
Cc1ccc(C(C)(C)c2cn(C)c(=O)c3[nH]c(-c4cnn(C5COC5)c4)cc23)cc1 [Compound A69, 6-methyl-2-(1-(oxetan-3-yl)-1H-pyrazol-4-yl)-4-(2-(p-tolyl)propan-2-yl)-1,6-dihydro-7H-pyrrolo[2,3-c]pyridin-7-one]	0.1 to 1	0.01 to 0.1
Cc1ccc(C2CCC(=O)N2c2cn(C)c(=O)c3[nH]c(C(=O)Nc4cn[nH]c4)cc23)cc1 (stereo not shown) [Compound A54]	0.1 to 1	0.01 to 0.1

Other lines, results leading:

IC50 [1] [µM]	IC50 [2] [µM]	SMILES
0.1 to 1	0.01 to 0.1	CCNC(=O)c1cc2c(/C(=C/c3ccccc3)c3ccccc3)cn(C)c(=O)c2[nH]1 [Compound A24, (E)-4-(1,2-diphenylvinyl)-N-ethyl-6-methyl-7-oxo-6,7-dihydro-1H-pyrrolo[2,3-c]pyridin-2-carboxamide]
0.1 to 1	0.01 to 0.1	Cc1ccc(-c2cn(C)nc2-c2cn(C)c(=O)c3[nH]c(C(=O)Nc4cn[nH]c4)cc23)cc1 [Compound A56, 6-methyl-4-(1-methyl-4-(p-tolyl)-1H-pyrazol-3-yl)-7-oxo-N-(1H-pyrazol-4-yl)-6,7-dihydro-1H-pyrrolo[2,3-c]pyridin-2-carboxamide]
0.1 to 1	0.01 to 0.1	CCNC(=O)c1cc2c(-c3c(C(=O)NCC)cnn3C(C)c3ccccc3)cn(C)c(=O)c2[nH]1 (stereo not shown) [Compound A35, N-ethyl-4-(4-(ethylcarbamoyl)-1-(1-phenylethyl)-1H-pyrazol-5-yl)-6-methyl-7-oxo-6,7-dihydro-1H-pyrrolo[2,3-c]pyridin-2-carboxamide]
0.1 to 1	≤ 0.01	CCNC(=O)c1cc2c(C(C)c3cccnc3)cn(C)c(=O)c2[nH]1 (stereo not shown) [Compound A11, N-ethyl-6-methyl-7-oxo-4-(1-(pyridin-3-yl)ethyl)-6,7-dihydro-1H-pyrrolo[2,3-c]pyridin-2-carboxamide]
0.1 to 1	0.01 to 0.1	COc1ccc(C(c2ccccc2)c2cn(C)c(=O)c3[nH]c(C(=O)Nc4cnn(C)c4)cc23)cc1 (stereo not shown) [Compound A38, 4-((4-methoxyphenyl)(phenyl)methyl)-6-methyl-N-(1-methyl-1H-pyrazol-4-yl)-7-oxo-6,7-dihydro-1H-pyrrolo[2,3-c]pyridin-2-carboxamide]
0.1 to 1	0.01 to 0.1	CCNC(=O)c1cc2c(-c3cn(C)nc3C(C)c3ccccc3)cn(C)c(=O)c2[nH]1 (stereo not shown) [Compound A33, N-ethyl-6-methyl-4-(1-methyl-3-(1-phenylethyl)-1H-pyrazol-4-yl)-7-oxo-6,7-dihydro-1H-pyrrolo[2,3c]pyridin-2-carboxamide]
0.01 to 0.1	≤ 0.01	CCNC(=O)c1cc2c(-c3nc4ncccc4n3-c3cc(C)c(F)c(C)c3)cn(C)c(=O)c2[nH]1 [Compound A30, N-ethyl-4-(1-(4-fluoro-3,5-dimethylphenyl)-1H-imidazo[4,5-b]pyridin-2-yl)-6-methyl-7-oxo-6,7-dihydro-1H-pyrrolo[2,3-c]pyridin-2-carboxamide]
0.01 to 0.1	≤ 0.01	CCNC(=O)c1cc2c(-c3cc(CO)c4ccccc4c3C3CC3)cn(C)c(=O)c2[nH]1 [Compound A32, 4-(1-cyclopropyl-4-(hydroxymethyl)naphthalen-2-yl)-N-ethyl-6-methyl-7-oxo-6,7-dihydro-1H-pyrrolo[2,3-c]pyridin-2-carboxamide]
0.1 to 1	0.01 to 0.1	CCNC(=O)c1cc2c(-c3c(C4CC4)nn(C)c3C3CC3)cn(C)c(=O)c2[nH]1 [Compound A34, 4-(3,5-dicyclopropyl-1-methyl-1H-pyrazol-4-yl)-N-ethyl-6-methyl-7-oxo-6,7-dihydro-1H-pyrrolo[2,3-c]pyridin-2-carboxamide]
0.1 to 1	0.01 to 0.1	CCNC(=O)c1cc2c(C(O)c3ccc4c(ccn4C)c3)cn(C)c(=O)c2[nH]1 (stereo not shown) [Compound A39, N-ethyl-4-(hydroxy(1-methyl-1H-indol-5-yl)methyl)-6-methyl-7-oxo-6,7-dihydro-1H-pyrrolo[2,3-c]pyridin-2-carboxamide]
0.1 to 1	0.01 to 0.1	CCNC(=O)c1cc2c(C(O)c3c(C)cccc3C)cn(C)c(=O)c2[nH]1 (stereo not shown) [Compound A23, (4-(2,6-dimethylphenyl)(hydroxy)methyl)-N-ethyl-6-methyl-7-oxo-6,7-dihydro-1H-pyrrolo[2,3-c]pyridin-2-carboxamide]
0.1 to 1	0.01 to 0.1	CC(c1ccc(Cl)cc1)c1cn(C)c(=O)c2[nH]c(C(=O)Nc3cnn(C)c3)cc12 (stereo not shown) [Compound A64, 4-(1-(4-chlorophenyl)ethyl)-6-methyl-N-(1-methyl-1H-pyrazol-4-yl)-7-oxo-6,7-dihydro-1H-pyrrolo[2,3-c]pyridin-2-carboxamide]
0.1 to 1	0.01 to 0.1	Cn1ccc(NC(=O)c2cc3c(-c4nc5ncccc5n4-c4ccccc4)cn(C)c(=O)c3[nH]2)n1 [Compound A53]
0.1 to 1	0.01 to 0.1	CCNC(=O)c1cc2c(Cc3ccccc3)cn(C)c(=O)c2[nH]1 [Compound A10, 4-benzyl-N-ethylamino-6-methyl-7-oxo-6,7-dihydro-1H-pyrrolo[2,3-c]pyridin-2-carboxamide]
0.01 to 0.1	≤ 0.01	CC(c1ccccc1)c1cn(C)c(=O)c2[nH]c(-c3c[nH]cn3)cc12 (stereo not shown) [Compound A47]
